A short description of series [1]: Human Caco-2 passive permeability A to B Papp. The note with it: apical pH 6.5, basolateral pH 7.4, efflux inhibitor cocktail. Format: in vitro ADME. The method, then:
An automated assay was used to determine the passive permeability of compounds in Caco-2 cell monolayers carried out over 2 hours with an apical pH of 6.5 and basolateral pH of 7.4. The Caco-2 AB inhibition assay is carried out with chemical inhibition of the three major efflux transporters ABCB1 (P-gp), ABCG2 (BCRP) and ABCC2 (MRP2) in Caco-2 cells. Incubation of both apical and basolateral is carried out with a cocktail of inhibitors (50 μM quinidine, 20 μM sulfasalazine and 100 μM benzbromarone). Samples were analyzed through LC/MS/MS to estimate the apparent permeability coefficients (Papp) of compounds across Caco-2 cell monolayers and results are quoted in units of ×10^−6 cm/s.

Another series concerns MCF7 xenografts. Description: Human parental MCF7 xenograft anti-tumour efficacy in mouse. Format: in vivo. The note with it: doses of 10 mg/kg and above, orally once a day for 21 days, male SCID mice. The method, then:
MCF7 cells (ATCC) were grown in vitro in exponential phase prior to implant. Briefly, male SCID mice weighing 18 g or more (Envigo UK) were implanted subcutaneously on the back with estrogen pellets (0.5 mg, 21 day release from Innovative Research of America) under recoverable anaesthetic. One day later mice were inoculated subcutaneously on the left flank with 5 million MCF7 cells, prepared as 0.1 ml cell suspension in 1:1 RPMI (Gibco, Life Technologies) and matrigel (Corning). When tumours reached ˜250 mm^3 mice were randomised into groups of 9 mice (12 mice for vehicle control) and started receiving drug treatment. Compounds were prepared in vehicle (40% Tetraethylene Glycol (v/v), 7.5% Captisol (w/v) in water for injection) and given orally in a volume of 10 ml/kg once a day for 21 days at 0.5 mg/kg to 50 mg/kg. Tumours were measured twice a week and tumour volume calculated using the elliptical formula (pi/6×width×width×length). Data represent the geomean of tumour volume relative to the tumour volume on day of randomisation. Error bars are the 95% confidence interval (Graphpad Prism).

The nature of series [2]: Human hepatocyte assay (metabolic stability). Format: in vitro ADME. The note with it: human hepatocytes. How it is done: The metabolic stability of compounds in human hepatocytes was assessed using the following protocol: • 1. Prepare 10 mM stock solutions of compound and control compounds in appropriate solvent (DMSO). Place incubation medium (L-15 Medium) in a 37° C. water bath, and allow warming for at least 15 minutes prior to use. • 2. Add 80 μL of acetonitrile to each well of the 96-well deep well plate (quenching plate). • 3. In a new 96-well plate, dilute the 10 mM test compounds and the control compounds to 100 μM by combining 198 μL of acetonitrile and 2 μL of 10 mM stock. • 4. Remove a vial of cryopreserved (less than −150° C.) human hepatocytes (LiverPool™ 10 Donor Human hepatocytes obtained from Celsis IVT. Chicago, Ill. (Product No. S01205)) from storage, ensuring that vials remain at cryogenic temperatures until thawing process ensues. As quickly as possible, thaw the cells by placing the vial in a 37° C. water bath and gently shaking the vials. Vials should remain in water bath until all ice crystals have dissolved and are no longer visible. After thawing is complete, spray vial with 70% ethanol, transfer the vial to a bio-safety cabinet. • 5. Open the vial and pour the contents into the 50 mL conical tube containing thawing medium. Place the 50 mL conical tube into a centrifuge and spin at 100 g for 10 minutes. […] Using Cellometer® Vision, count cells and determine the viable cell density. Cells with poor viability (<80% viability) are not acceptable for use. […] Transfer 247.5 μL of hepatocytes into each well of a 96-well cell culture plate. Place the plate on Eppendorf Thermomixer Comfort plate shaker to allow the hepatocytes to warm for 10 minutes. • 8. Add 2.5 μL of 100 μM test compound or control compounds into an incubation well containing cells, mix to achieve a homogenous suspension at 0.5 min, which when achieved, will define the 0.5 min time point. At the 0.5 min time, transfer 20 μL of incubated mixture to wells in a “Quenching plate” followed by vortexing. • 9. Incubate the plate at 37° C. at 900 rpm on an Eppendorf Thermomixer Comfort plate shaker. […] Centrifuge the quenching plates for 20 minutes at 4,000 rpm. 4 different compounds are pooled into one cassette and used for LC/MS/MS analysis.
All calculations were carried out using Microsoft Excel. Peak areas were determined from extracted ion chromatograms. In vitro intrinsic clearance (in vitro Clint, in […]) of parent compound was determined by regression analysis of the Ln percent parent disappearance vs. time curve.
V=incubation volume (0.25 mL);
N=number of hepatocytes per well (0.25×10^6 cells).

`C[C@@H]1Cc2c(ccc3[nH]ncc23)[C@@H](c2ccc(NC3CN(CCCF)C3)cn2)N1CC(F)(F)F` [Example 17, N-(1-(3-fluoropropyl)azetidin-3-yl)-6-((6S,8R)-8-methyl-7-(2,2,2-trifluoroethyl)-6,7,8,9-tetrahydro-3H-pyrazolo[4,3-f]isoquinolin-6-yl)pyridin-3-amine] displayed a Papp at 2 h in series [1] of 13.3 ×10⁻⁶ cm/s. Further, in the series on MCF7 xenografts, the “effect on tumour growth” value is “tumour regression”. In series [2], this compound registered an intrinsic clearance (hepatocyte CLint) at 1 µM of 6 µL/min/1e6 cells.

(Values after patent US10131663B2, “Chemical compounds” (AstraZeneca AB, priority 2016, dated 2018).)
